Where “and” joins values, the source holds several entries; their conditions need not be identical. Equal values may be shown once.
Tests used:
[1] = test system: C2C12/Ras tumor; experiment: MicroPET imaging of C2C12/Ras tumor-bearing mice; assay type: in vivo, mouse; conditions: 2 and 24 hours post injection, 5.55 MBq i.v.
Description: (§1) FIG. 3 is a composite photograph showing mouse uptake of labeled probe, i.e., a series of photographs of imaged mice. For purposes of reproduction, the image is converted to black and white and reversed. Lightest to darkest is a range between 0% ID (injected dose)/g and 1% ID/g. […] Arrows indicate location of tumors.
(§2) We performed micro PET imaging of mice bearing the MDA-MB-435 and C2C12/Ras tumors. The static microPET images (5 or 10-min scan, three tumor bearing mice were used for each study) of ^64Cu-Z-FK(DOTA)-AOMK are illustrated in coronal images of the subcutaneously implanted tumor-bearing mice (FIG. 3). […] The tumor, indicated by the arrow, is not clearly illuminated.
(§3) PET imaging of tumor-bearing mice is performed on a microPET R4 rodent model scanner (Concorde Microsystems Inc, Knoxyille, Tenn.). The mice bearing C2C12/Ras and MDA-MB-435 tumors were injected with 5.55 MBq (150 μCi) of ^64Cu AOMK probe via the tail vein. At different times p.i., the mice were anesthetized with 2% isoflurane, and placed in the prone position and near the center of the field of view of microPET. The 5 or 10-min static scans were obtained and the images were reconstructed by a two-dimensional ordered subsets expectation maximum (OSEM) algorithm.

[2] = test system: C2C12/Ras tumors; experiment: Biodistribution in nude mice bearing subcutaneous C2C12/Ras tumors; assay type: in vivo, mouse; conditions: for Biodistribution: Blood / Biodistribution: Bone / Biodistribution: Brain / Biodistribution: Heart / Biodistribution: Intestines / Biodistribution: Kidney / Biodistribution: Liver / Biodistribution: Lung / Biodistribution: Muscle / Biodistribution: Pancreas / Biodistribution: Spleen / Biodistribution: Stomach / Biodistribution: Tumor / Tumor/Blood ratio / Tumor/Muscle ratio: C2C12/Ras tumor mice, i.v. 740 kBq
Method: All animal studies were carried out in compliance with Federal and local institutional rules for the conduct of animal experimentation. Female athymic nude mice (nu/nu) were obtained from Charles River Laboratories (Boston, Mass.) at 7-8 weeks old and kept under sterile conditions. The nude mice were inoculated subcutaneously in the right shoulder with 2×10^6 cultured C2C12/Ras cells or 5×10^6 MDA-MB-435 cells. When the tumors reach 0.5-0.8 cm in diameter, the tumor bearing mice were subjected to in vivo biodistribution studies. For biodistribution studies, the mice bearing C2C12/Ras or MDA-MB-435 tumor xenografts (n=3 for each group) were injected with 740 KBq (20 μCi) of ^64Cu labeled tracer through the tail vein and sacrificed at different time points post injection (p.i.). Tumor and normal tissues of interest were removed and weighed, and their radioactivity was measured in a gamma-counter. The radioactivity uptake in the tumor and normal tissues was expressed as a percentage of the injected radioactive dose per gram of tissue (% ID/g).
We next examined the overall biodistribution of ^64Cu-Z-FK(DOTA)-AOMK using athymic nude mice carrying subcutaneously grafted C2C12/Ras and MDA-MB-435 tumors. […] Importantly, we observed rapid accumulation of radioactivity in the C2C12/Ras tumors expressing high levels of cysteine cathepsins (0.35±0.13% ID/g at 0.5 h p.i.). This activity remained in the tumors resulting in an uptake of 0.27±0.05% ID/g at 24 h p.i. For the MDA-MB-435 tumors with lower cysteine cathepsin expression, tumor uptake was approximately 2 fold lower at each time point relative to the C2C12/Ras tumors (P<0.05). […] The highest radioactivity was found in the liver due to high endogenous expression of various cysteine cathepsins. Moderate renal accumulation was also observed at all times in both tumor models.
Data are expressed as the percentage administered activity (injected dose) per gram of tissue (% ID/g) after intravenous injection of 740 kBq (20 μCi) of ^64Cu-Z-FK(DOTA)-AOMK at 0.5, 2, and 24 h pi (n=3). Significant lower tumor uptake and tumor/blood, tumor/muscle ratio in MDA-MB-435 breast cancer (P<0.05) were observed.

[3] = Octanol/water partition coefficient; assay type: physicochemical; conditions: octanol / PBS pH 7.4, repeated 3 times
Method: Octanol/water partition coefficient. To determine the lipophilicity of ^64Cu-Z-FK(DOTA)-AOMK, approximately 370 kBq of ^64Cu-labeled complex in 500 μl of PBS (pH 7.4) was added to 500 μl of octanol in an eppendorf microcentrifuge tube. The resulting biphasic system was mixed vigorously for 10 min and left at room temperature for another 60 min. The two phases were then separated by centrifugation at 2000 g for 5 min (model 5415R Eppendorf microcentrifuge; Brinkman, Westbury, N.Y.). From each layer, an aliquot of 100 μl was removed and counted in a γ-counter (Packard Instruments). The partition coefficient (log P) was then calculated as a ratio of counts in the octanol fraction to the counts in the water fraction. The experiment was repeated 3 times. The lipophilicity of the probe affects its in vivo pharmacokinetics, and should be modest (˜0), with hydrophobic and hydrophilic groups present. For further details, see Lin et al., “Role of Pharmacokinetics and Metabolism in Drug Discovery and Development,” Pharmacological Reviews, Vol. 49, Issue 4, 403-449, December 1997.

[4] = test system: MDA-MB-435 tumor; experiment: MicroPET imaging of MDA-MB-435 tumor-bearing mice; assay type: in vivo, mouse; conditions: MDA-MB-435 tumor, 1, 4 and 28 hours post injection
Description: as §1, §2, §3

Biodistribution: Blood ([2]; 0.5 h p.i.): 0.24 ± 0.07 % ID/g
Biodistribution: Bone ([2]; 0.5 h p.i.): 0.09 ± 0.02 % ID/g
Biodistribution: Brain ([2]; 0.5 h p.i.): 0.04 ± 0.03 % ID/g
Biodistribution: Heart ([2]; 0.5 h p.i.): 0.25 ± 0.02 % ID/g
Biodistribution: Intestines ([2]; 0.5 h p.i.): 1.84 ± 0.57 % ID/g
Biodistribution: Kidney ([2]; 0.5 h p.i.): 0.74 ± 0.29 % ID/g
Biodistribution: Liver ([2]; 0.5 h p.i.): 3.71 ± 1.04 % ID/g
Biodistribution: Lung ([2]; 0.5 h p.i.): 0.50 ± 0.17 % ID/g
Biodistribution: Muscle ([2]; 0.5 h p.i.): 0.06 ± 0.01 % ID/g
Biodistribution: Pancreas ([2]; 0.5 h p.i.): 0.25 ± 0.22 % ID/g
Biodistribution: Spleen ([2]; 0.5 h p.i.): 0.35 ± 0.24 % ID/g
Biodistribution: Stomach ([2]; 0.5 h p.i.): 0.63 ± 0.69 % ID/g
Biodistribution: Tumor ([2]; 0.5 h p.i.): 0.35±0.13 % ID/g
Tumor/Blood ratio ([2]; 0.5 h p.i.): 1.41 ± 0.32
Tumor/Muscle ratio ([2]; 0.5 h p.i.): 5.24 ± 1.35
Biodistribution: Blood ([2]; 2 h p.i.): 0.24 ± 0.03 % ID/g
Biodistribution: Bone ([2]; 2 h p.i.): 0.10 ± 0.01 % ID/g
Biodistribution: Brain ([2]; 2 h p.i.): 0.02 ± 0.00 % ID/g
Biodistribution: Heart ([2]; 2 h p.i.): 0.30 ± 0.08 % ID/g
Biodistribution: Intestines ([2]; 2 h p.i.): 1.38 ± 0.54 % ID/g
Biodistribution: Kidney ([2]; 2 h p.i.): 0.67 ± 0.19 % ID/g
Biodistribution: Liver ([2]; 2 h p.i.): 3.59 ± 1.01 % ID/g
Biodistribution: Lung ([2]; 2 h p.i.): 0.59 ± 0.22 % ID/g
Biodistribution: Muscle ([2]; 2 h p.i.): 0.05 ± 0.01 % ID/g
Biodistribution: Pancreas ([2]; 2 h p.i.): 0.18 ± 0.08 % ID/g
Biodistribution: Spleen ([2]; 2 h p.i.): 0.24 ± 0.04 % ID/g
Biodistribution: Stomach ([2]; 2 h p.i.): 0.32 ± 0.06 % ID/g
Biodistribution: Tumor ([2]; 2 h p.i.): 0.30 ± 0.03 % ID/g
Tumor/Blood ratio ([2]; 2 h p.i.): 1.25 and 1.25 ± 0.21
Tumor/Muscle ratio ([2]; 2 h p.i.): 5.64 and 5.64 ± 0.98
Biodistribution: Blood ([2]; 24 h p.i.): 0.28 ± 0.10 % ID/g
Biodistribution: Bone ([2]; 24 h p.i.): 0.14 ± 0.10 % ID/g
Biodistribution: Brain ([2]; 24 h p.i.): 0.05 ± 0.01 % ID/g
Biodistribution: Heart ([2]; 24 h p.i.): 0.46 ± 0.07 % ID/g
Biodistribution: Intestines ([2]; 24 h p.i.): 0.46 ± 0.04 % ID/g
Biodistribution: Kidney ([2]; 24 h p.i.): 0.72 ± 0.05 % ID/g
Biodistribution: Liver ([2]; 24 h p.i.): 1.86 ± 0.57 % ID/g
Biodistribution: Lung ([2]; 24 h p.i.): 0.65 ± 0.15 % ID/g
Biodistribution: Muscle ([2]; 24 h p.i.): 0.06 ± 0.02 % ID/g
Biodistribution: Pancreas ([2]; 24 h p.i.): 0.21 ± 0.06 % ID/g
Biodistribution: Spleen ([2]; 24 h p.i.): 0.42 ± 0.06 % ID/g
Biodistribution: Stomach ([2]; 24 h p.i.): 0.27 ± 0.11 % ID/g
Biodistribution: Tumor ([2]; 24 h p.i.): 0.27±0.05 % ID/g
Tumor/Blood ratio ([2]; 24 h p.i.): 0.99 ± 0.24
Tumor/Muscle ratio ([2]; 24 h p.i.): 4.07 ± 1.13
Blood clearance ([2]; both tumor models, nude mice, i.v.): rapid clearance in blood
log P (octanol-water partition coefficient) [3]: −0.10±0.04
Compound: Cc1cccc(C)c1C(=O)OCC(=O)[C@H](CCCCNC(=O)CN1CCN(CC(=O)[O-])CCN(CC(=O)O)CCN(CC(=O)[O-])CC1)NC(=O)[C@H](Cc1ccccc1)NC(=O)OCc1ccccc1.[64Cu+2] [^64Cu-Z-FK(DOTA)-AOMK]
MicroPET tumor visualization / contrast [1]: clearly visualized with good tumor to contralateral background contrast
MicroPET tumor visualization / contrast [4]: low tumor uptake and poor tumor to normal tissue contrast
